# Results taken from PMC9938201, “Neuroprotective and antioxidant properties of new quinolylnitrones in in vitro and in vivo cerebral ischemia models” (Scientific Reports, 2023).
# Biological target: T1, soybean lipoxygenase (LOX) (Glycine max, UniProt P08170)
# T1 construct: gene LOX1.1
# T1 sequence (P08170 1-839): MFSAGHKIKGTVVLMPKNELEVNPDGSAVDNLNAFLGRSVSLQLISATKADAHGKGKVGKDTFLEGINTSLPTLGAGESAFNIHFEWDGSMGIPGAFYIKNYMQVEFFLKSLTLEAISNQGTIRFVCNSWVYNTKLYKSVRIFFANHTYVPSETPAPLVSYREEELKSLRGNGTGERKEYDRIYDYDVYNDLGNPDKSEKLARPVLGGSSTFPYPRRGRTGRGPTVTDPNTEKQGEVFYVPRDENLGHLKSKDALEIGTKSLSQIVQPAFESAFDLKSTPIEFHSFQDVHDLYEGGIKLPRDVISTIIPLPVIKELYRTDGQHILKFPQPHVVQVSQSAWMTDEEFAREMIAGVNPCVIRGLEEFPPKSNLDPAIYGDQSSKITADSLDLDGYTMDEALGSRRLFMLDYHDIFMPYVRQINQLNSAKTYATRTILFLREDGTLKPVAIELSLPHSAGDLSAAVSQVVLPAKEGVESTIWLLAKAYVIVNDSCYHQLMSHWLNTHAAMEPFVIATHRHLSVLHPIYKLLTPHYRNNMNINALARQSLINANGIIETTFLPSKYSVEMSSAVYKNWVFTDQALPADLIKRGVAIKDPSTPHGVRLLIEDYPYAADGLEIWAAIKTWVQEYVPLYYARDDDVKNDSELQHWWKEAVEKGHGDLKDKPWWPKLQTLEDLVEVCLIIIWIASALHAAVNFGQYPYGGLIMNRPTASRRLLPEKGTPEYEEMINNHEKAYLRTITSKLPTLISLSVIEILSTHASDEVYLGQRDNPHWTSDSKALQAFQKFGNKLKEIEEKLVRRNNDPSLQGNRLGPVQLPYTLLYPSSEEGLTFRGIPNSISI
# Experiment: UV absorbance at […] nm, sodium linoleate oxidation by soybean LOX, pH […]
# Format: biochemical
compound,measurement,value
CC(C)(C)/[N+]([O-])=C/c1ccc2cccc(O)c2n1 [QN5],IC50,5 µM
